According to article PMC8743659, “C1632 suppresses the migration and proliferation of non‐small‐cell lung cancer cells involving LIN28 and FGFR1 pathway” (Journal of Cellular and Molecular Medicine, 2021):
Entries after “also recorded” stand apart in the source; their conditions may differ.

Key:
[1] = test system: matrix metalloproteinase-9 (MMP-9); test: Western blot of MMP-9; assay type: cell-based, human; details: A549 and A549R cells, 5 days
Description: (§1) The total cell protein was extracted and denaturized at 95°C for 10 min. Samples were separated in SDS‐PAGE gel, then transferred to a PVDF membrane. Then this membrane was blocked with 5% non‐fat milk (solved in TBST) for 2.5 h at room temperature. Blots were probed with relevant primary antibodies against FGFR1 (CST), p‐FGFR1 (CST), MAPK (CST), p‐MAPK (CST), FAK (CST), p‐FAK (CST), MMP‐9 (CST), LIN28B (CST), GAPDH (CST), and β‐actin (proteintech) overnight at 4°C, respectively. Then the lanes were detected with HRP‐conjugated secondary antibodies and visualized using WESTAR SUPERNOVA kit (CYANAGEN).

A549 cells [2] = test: Annexin V/PI apoptosis assay; assay type: cell-based, human; details: A549, 15, 30 or 60 mg/L, 5 days
Description: (§2) Cells were seeded in 6 cm^2 dish with a density of 3.0 × 10^5 cells per dish and treated with C1632 with final concentration of 15, 30, and 60 mg/L or 0.01% DMSO for 5 days. Then the assay was performed following the protocol provided by the Annexin V/PI Apoptosis Kit (Sigma) and was assessed on a flow cytometer (BD FACSCalibur, BD Biosciences).

A549R cells [3] = test: Annexin V/PI apoptosis assay; assay type: cell-based, human; details: A549R, 15, 30 or 60 mg/L, 5 days
Description: as §2

[4] = test system: focal adhesion kinase (FAK); test: Western blot of p-FAK; assay type: cell-based, human; details: A549 and A549R cells, 5 days
Description: as §1

A549 cells [5] = test: SA-β gal staining assay; assay type: cell-based, human; details: A549, 15, 30 and 60 mg/L, 5 days
Description: (§3) The assay was set up following the β‐galactosidase (SA‐β gal) staining Kit, which was obtained from Sigma. In brief, cells were washed once with PBS and fixed with stationary liquid provided in the kit at room temperature for 15 min. Next, the cells were incubated overnight at 37°C in dark with the 1 ml working solution containing 0.05 mg/ml 5‐bromo‐4‐chloro‐3‐indolyl‐b‐d‐galactopyranoside (X‐gal) and observed under a normal light microscope (Nikon).

A549R cells [6] = test: SA-β gal staining assay; assay type: cell-based, human; details: A549R, 15, 30 and 60 mg/L, 5 days
Description: as §3

A549 cells [7] = test: Colony formation assay; assay type: cell-based, human; details: A549, 15, 30 and 60 mg/L, dose-dependent
Description: (§4) First, cells were treated with indicated concentrations of C1632 or 0.01% DMSO for 5 days. Then these cells were separated into single cells that were directly used for cloning. During the process of cloning, C1632‐treated A549 or A549R cells were still maintained in DMEM plus 10% FBS medium containing the indicated concentration of C1632 (15, 30, and 60 mg/L), while the control group was cultured with 0.01% DMSO. Both culture media were changed for every 2 days until 10 days. The number of forming colonies in C1632 or 0.01% DMSO‐treated groups was counted and the images were taken.

A549R cells [8] = test: Colony formation assay; assay type: cell-based, human; details: A549R, 15, 30 and 60 mg/L, dose-dependent; stronger than in A549
Description: as §4

CYP2D1 = biological target: T1, CYP2D1 (Rattus norvegicus, UniProt P10633); test: Microsomal incubation (cocktail) assay, rat liver microsomes; assay type: in vitro ADME; details: 100 μM C1632, probe 10 μM dextromethorphan, 30 min, 37°C
T1 construct: 3.4 mg/ml pooled rat liver microsomes; from tissue; host or cells: pooled rat liver microsomes
T1 sequence (P10633 1-504): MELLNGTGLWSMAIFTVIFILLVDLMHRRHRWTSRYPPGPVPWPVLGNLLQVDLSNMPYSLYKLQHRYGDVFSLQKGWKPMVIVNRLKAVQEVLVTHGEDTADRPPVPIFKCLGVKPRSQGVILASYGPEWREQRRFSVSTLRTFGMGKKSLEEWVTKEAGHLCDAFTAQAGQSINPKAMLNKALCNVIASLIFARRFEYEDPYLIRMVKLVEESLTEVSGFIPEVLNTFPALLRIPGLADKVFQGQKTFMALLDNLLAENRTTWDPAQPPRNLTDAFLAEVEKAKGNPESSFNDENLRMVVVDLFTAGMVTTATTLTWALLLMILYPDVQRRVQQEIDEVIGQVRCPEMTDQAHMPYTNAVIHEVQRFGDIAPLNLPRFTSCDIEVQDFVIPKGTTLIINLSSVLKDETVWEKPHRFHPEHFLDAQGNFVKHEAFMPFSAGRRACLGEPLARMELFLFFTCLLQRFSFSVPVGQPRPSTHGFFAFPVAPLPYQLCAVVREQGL
Description: (§5) The microsomal incubation assay[41] was performed at 37°C in a 200 μl incubation system, which consisted of 3.4 mg/ml pooled rat liver microsomes, 100 μM C1632, and probe substrates (5 μM CYP3A2‐midazolam; 10 μM CYP2D1‐dextromethorphan; 250 μM CYP2C11‐tolbutamide; 10 μM CYP2B1‐bupropion; and 0.1 M Tris–HCl [pH 7.4]). After 5 min of incubation, 1 mM NADPH was added, and the assay was terminated after 30 min by cooling at −80°C. Next, 0.2 ml acetonitrile and 20 μl IS (100 ng/ml) were added to the reactant. Finally, the solution was thoroughly vortexed and centrifuged at 12,000 rpm for 10 min. The supernatant was analysed by UHPLC‐MS/MS.[42]

CYP2B1 = biological target: T2, CYP2B1 (Rattus norvegicus, UniProt P00176); test: as above; assay type: in vitro ADME; details: 100 μM C1632, probe 10 μM bupropion, 30 min, 37°C
T2 construct: 3.4 mg/ml pooled rat liver microsomes; from tissue; host or cells: pooled rat liver microsomes
T2 sequence (P00176 1-491): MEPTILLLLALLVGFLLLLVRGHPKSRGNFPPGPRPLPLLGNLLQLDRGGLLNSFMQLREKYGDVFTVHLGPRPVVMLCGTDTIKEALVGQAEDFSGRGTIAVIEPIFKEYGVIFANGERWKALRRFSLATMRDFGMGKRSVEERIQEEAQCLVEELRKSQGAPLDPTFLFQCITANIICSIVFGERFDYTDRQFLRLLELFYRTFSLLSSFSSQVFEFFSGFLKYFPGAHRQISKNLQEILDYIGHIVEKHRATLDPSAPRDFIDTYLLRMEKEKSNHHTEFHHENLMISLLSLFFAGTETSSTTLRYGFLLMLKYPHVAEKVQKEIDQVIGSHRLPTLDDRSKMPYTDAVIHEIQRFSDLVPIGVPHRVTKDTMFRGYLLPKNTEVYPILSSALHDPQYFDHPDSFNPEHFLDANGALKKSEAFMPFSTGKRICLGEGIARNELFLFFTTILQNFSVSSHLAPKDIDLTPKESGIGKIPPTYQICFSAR
Description: as §5

In the case of `CC(=O)N(C)c1cccc(-c2ccc3nnc(C)n3n2)c1` [C1632], the “expression of MMP-9” value [1] is reported as “efficiently decreased”, the apoptosis (A549 cells [2]) is reported as “induces apoptosis” and the apoptosis (A549R cells [3]) is reported as “limited effects; also recorded: did not significantly increase”. For the same compound, the “phosphorylation of FAK” value [4] was “efficiently decreased”, the “senescence (β-gal positive cells)” value (A549 cells [5]) was “did not induce the senescence; also recorded: did not significantly increase” and the “senescence (β-gal positive cells)” value (A549R cells [6]) was “induce the senescence”. For the same compound, the “formation of colony units” value (A549 cells [7]) was “inhibited”, the “formation of colony units” value (A549R cells [8]) was “inhibited” and the “effect on CYP2D1 activity” value (CYP2D1) was “significantly inhibit”. The “effect on CYP2B1 activity” value (CYP2B1) was “significantly inhibit”.
